Measurements published in patent US5635356A, “Anti-oncoimmunin-M antibodies and uses thereof” (The United States of America as represented by the …, priority 1994, dated 1997).

System: Oncoimmunin-M treated HL-60 cells
Assay: Chemotaxis in multiwell microchemotaxis chamber
Type: cell-based, human
Conditions: HL-60 cells exposed to Oncoimmunin-M (2 nM) for two days; f-Met-Leu-Phe 10^-10 to 10^-6 M; 3 hr, 37° C.; FIG. 22C
Protocol: To assess whether the Oncoimmunin-M induced alterations in integrin expression are associated with the induction of a biologic activity which could serve a role in antitumor or antimicrobial function, HL-60 cells that had been exposed to Oncoimmunin-M (2 nM) for two days were assayed for chemotactic ability. Specifically, the treated cells were placed in a multiwell microchemotaxis chamber and assayed for their ability to migrate in response to a gradient of the chemoattractant recombinant human C5a (rHuC5a), recombinant interleukin-8, and the peptide f-Met-Leu-Phe.
Cells were suspended in the serum-free medium (SFM) at a concentration of 5×10^5 cells/ml. Assays in which the total number of cells migrating through the polyvinylpyrrolidone-free polycarbonate membranes (5 μm pores; Nucleopore Corp., Pleasanton, Calif.) were performed for 3 hr in a 37° C. incubator containing 5% CO2. After incubation, nonmigrated cells were wiped off the filters which were then fixed in methanol and stained with Diff-Quik (Dade Diagnostics, Inc., Aguada, Puerto Rico). Migrated cells were counted with an Optomax System 40-10 Image Analyzer (Optomax, Inc., Hollis, N.H., U.S.A.). Random migration was determined by quantifying cell migration to serum-free medium alone.

CSCC[C@H](NC=O)C(=O)N[C@@H](CC(C)C)C(=O)N[C@@H](Cc1ccccc1)C(=O)O [f-Met-Leu-Phe]
migratory (chemotactic) response to chemoattractant gradient: no significant response
